Biological target: T1, CFTR (Homo sapiens, UniProt P13569, DEL508-508)
T1 construct: Primary CF airway epithelial cells were obtained from the UNC Cystic Fibrosis Tissue Procurement and Cell Culture Core; host or cells: primary CF airway epithelial cells
Test: Equivalent current assay in Primary CF airway epithelial cells (NAUC)
Assay type: cell-based
Settings: 24 h, normalized to VX809 (3 μM) positive control; for Nauc @ 3 μM: 3 μM test compound; for Nauc @ 10 μM: 10 μM test compound
Procedure: Primary CF airway epithelial cells were obtained from the UNC Cystic Fibrosis Tissue Procurement and Cell Culture Core. The cells are grown at 37° C. in a Heracell 150i incubator using growth media (BEGM, Fischer). Cells were then transferred to differentiation media (ALI, UNC) for a minimum of 4 weeks on coated Costar snapwells. Two days before the Ussing assay the mucus on the apical surface of the cells was aspirated after incubating with 200 μL of differentiation Media for at least thirty (30) minutes. One day before the Ussing assay test compounds were added to the basolateral surface of the cells at various test concentrations dissolved in DMSO. Duplicate wells were prepared giving a n=3 or n=4 protocol.
Cells were treated for 24 hours with various combinations and concentrations of the test articles, reference standard (3 μM VX809, positive control). Compounds stock solutions were prepared in DMSO and diluted 1/1000 into ALI media to their final assay concentration. Cells were treated with combination solutions (2 mL of each dilution) and incubated at 37° C. for 24 h.
For the equivalent current assay, cells on four Transwell (24-well) plates were treated. Each Transwell plate was filled with 200 μl of HBS on the apical surface and 2 ml on the basolateral surface. Plates were placed horizontally in a heated mount at 37° C., and equilibrated for several minutes. Resting current was measured for 15 min and then blocked by the apical addition of 5 μM benzamil. After 20 min, 10 μM forskolin and 1 μM VX770 were added to both the apical and basolateral side to stimulate CFTR. An increase in chloride current is seen as an upward deflection of the trace. After another 30 min, CFTR-172 (a CFTR inhibitor, 20 μM) and/or bumetanide (20 uM) was added to block CFTR mediated chloride current.
The raw data, current vs. time for the Ussing chamber (sampling interval: 10 s) and voltage vs. time and resistance vs. time for the equivalent current assay (sampling interval: 5 minutes) were transferred to Excel (Microsoft Office Professional, version 14.0.7106.5003) for analysis. CFTR specific current was measured as the average amplitude of the increase in current elicited upon addition forskolin and ending upon addition of the CFTR channel specific blocker CFTR-172. This average is equivalent to the sum of the average forskolin activated and the average VX770-potentiated currents. The average current measured in vehicle (0.1% DMSO) treated cells, Iv, was subtracted from the current for the test article, ITA, or from the corrector reference standard VX809 (3 uM ISTD. For replicate measurements, the average vehicle subtracted response for the test article, was normalized to the average vehicle subtracted inhibitor response of the reference corrector VX809 (3 μM). INSC=(ITA−IV)(ave)/(ISTD−IV)(ave) (Equation 1)
A second endpoint, for the equivalent current assay, evaluated was NAUC, the normalized area under the curve (AUC) measuring the response after addition of forskolin and VX770 to the time point right before the addition of the CFTR inhibitor. The AUC is effectively the average response multiplied by the duration of the response. The AUC of the test article, AUCTA was then corrected by subtracting the average vehicle response, AUCV,ave over the same time range, and normalized as for the inhibitor-sensitive current to the difference of the corrector reference standard VX809 (3 μM VX809r,ave and the vehicle response: NAUCTA=[AUCTA−AUCV,ave]/[AUCVx809r,ave−AUCV,ave] (Equation 2).
The normalized value for DMSO is 0.0 and for VX-809 alone is 1.0. Combinations of compounds with VX-809 that give normalized values greater than 1.0 show activity in the combination assay. A value of 2 means the test compound doubles the effect to VX-809 alone.
Experiments were run with a minimum of n=4 replicates per concentration. […]

T1 sequence (P13569 with tags, fused parts or gaps DEL508-508): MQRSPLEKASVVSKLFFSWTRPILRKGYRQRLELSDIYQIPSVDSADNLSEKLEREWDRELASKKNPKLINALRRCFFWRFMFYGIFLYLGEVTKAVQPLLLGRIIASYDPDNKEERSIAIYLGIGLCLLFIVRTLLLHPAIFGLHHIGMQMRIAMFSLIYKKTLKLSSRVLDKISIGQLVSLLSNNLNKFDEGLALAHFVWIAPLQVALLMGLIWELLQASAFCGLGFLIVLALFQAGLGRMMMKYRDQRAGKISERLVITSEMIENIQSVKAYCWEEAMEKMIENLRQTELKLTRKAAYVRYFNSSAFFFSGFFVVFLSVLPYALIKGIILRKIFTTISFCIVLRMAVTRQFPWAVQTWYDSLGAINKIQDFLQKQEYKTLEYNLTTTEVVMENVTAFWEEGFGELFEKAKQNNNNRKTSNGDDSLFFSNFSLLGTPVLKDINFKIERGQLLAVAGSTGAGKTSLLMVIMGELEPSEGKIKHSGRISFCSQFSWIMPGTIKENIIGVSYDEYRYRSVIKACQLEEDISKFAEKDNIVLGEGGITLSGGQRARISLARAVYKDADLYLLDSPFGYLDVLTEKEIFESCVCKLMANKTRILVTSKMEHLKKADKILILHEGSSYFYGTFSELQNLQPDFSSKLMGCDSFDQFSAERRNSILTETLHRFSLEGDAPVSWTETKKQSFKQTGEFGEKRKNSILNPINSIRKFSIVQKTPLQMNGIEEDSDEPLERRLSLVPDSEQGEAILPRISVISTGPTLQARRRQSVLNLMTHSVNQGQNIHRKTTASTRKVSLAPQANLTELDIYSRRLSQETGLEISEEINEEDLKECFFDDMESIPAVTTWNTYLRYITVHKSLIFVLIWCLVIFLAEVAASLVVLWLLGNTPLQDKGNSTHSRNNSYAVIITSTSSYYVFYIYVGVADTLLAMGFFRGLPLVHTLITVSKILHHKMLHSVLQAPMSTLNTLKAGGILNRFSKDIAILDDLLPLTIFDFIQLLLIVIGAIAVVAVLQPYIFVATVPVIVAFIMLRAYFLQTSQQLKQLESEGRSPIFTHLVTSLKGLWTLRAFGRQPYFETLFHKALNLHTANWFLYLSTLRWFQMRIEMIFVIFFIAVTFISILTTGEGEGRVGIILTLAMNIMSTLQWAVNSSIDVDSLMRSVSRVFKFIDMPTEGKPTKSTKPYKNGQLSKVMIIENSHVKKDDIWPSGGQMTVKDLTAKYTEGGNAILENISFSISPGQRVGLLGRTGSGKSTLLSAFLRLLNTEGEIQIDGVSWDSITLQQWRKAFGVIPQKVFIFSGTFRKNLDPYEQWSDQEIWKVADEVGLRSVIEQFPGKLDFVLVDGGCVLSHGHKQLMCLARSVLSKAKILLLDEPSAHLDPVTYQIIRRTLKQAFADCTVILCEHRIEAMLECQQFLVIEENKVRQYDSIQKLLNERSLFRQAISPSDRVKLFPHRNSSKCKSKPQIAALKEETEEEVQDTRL

CC1(C)CC2C3C(=O)N(c4cc(Cl)cc(Cl)c4)C(=O)C3C3(C(=O)Nc4c(Cl)cc(Cl)cc43)N2C1 (single isomer, unassigned) [Example 120]
Nauc @ 3 μM: +++ (NAUC “+++” refers to an observed NAUC >170% of positive control) | Nauc @ 10 μM: + (NAUC “+” refers to an observed NAUC <140% of positive control)

COc1cc(Cl)cc(N2C(=O)C3C4CC(=C(F)F)CN4C4(C(=O)Nc5c(Cl)cc(Cl)cc54)C3C2=O)c1 (single isomer, unassigned) [Example 138]
Nauc @ 3 μM: +++ (NAUC “+++” refers to an observed NAUC >170% of positive control) | Nauc @ 10 μM: + (NAUC “+” refers to an observed NAUC <140% of positive control)

COc1cc(Cl)cc(N2C(=O)C3C4CC(=C(F)F)CN4C4(C(=O)Nc5c(Cl)cc(Cl)cc54)C3C2=O)c1 (single isomer, unassigned) [Example 139]
Nauc @ 3 μM: ++ (NAUC “++” refers to an observed NAUC 170-140% of positive control) | Nauc @ 10 μM: + (NAUC “+” refers to an observed NAUC <140% of positive control)

COc1c(Cl)cc(N2C(=O)C3C4CC(C)(C)CN4C4(C(=O)Nc5c(Cl)cc(Cl)cc54)C3C2=O)cc1Cl (single isomer, unassigned) [Example 140]
Nauc @ 3 μM: +++ (NAUC “+++” refers to an observed NAUC >170% of positive control) | Nauc @ 10 μM: +++ (NAUC “+++” refers to an observed NAUC >170% of positive control)

COc1c(Cl)cc(N2C(=O)C3C4CC(C)(C)CN4C4(C(=O)Nc5c(Cl)cc(Cl)cc54)C3C2=O)cc1Cl (single isomer, unassigned) [Example 141]
Nauc @ 3 μM: + (NAUC “+” refers to an observed NAUC <140% of positive control) | Nauc @ 10 μM: ++ (NAUC “++” refers to an observed NAUC 170-140% of positive control)

C=C1CC2C3C(=O)N(c4cc(Cl)cc(Cl)c4)C(=O)C3C3(C(=O)Nc4c(Cl)cc(Cl)cc43)N2C1 (single isomer, unassigned) [Example 144]
Nauc @ 3 μM: +++ (NAUC “+++” refers to an observed NAUC >170% of positive control) | Nauc @ 10 μM: +++ (NAUC “+++” refers to an observed NAUC >170% of positive control)

C[C@@]1(F)CC2C3C(=O)N(c4cc(Cl)cc(Cl)c4)C(=O)C3C3(C(=O)Nc4c(Cl)cc(Cl)cc43)N2C1 (single isomer, unassigned) [Example 161]
Nauc @ 3 μM: +++ (NAUC “+++” refers to an observed NAUC >170% of positive control) | Nauc @ 10 μM: +++ (NAUC “+++” refers to an observed NAUC >170% of positive control)

COc1c(Cl)cc(N2C(=O)C3C4C[C@@](C)(F)CN4C4(C(=O)Nc5c(Cl)cc(Cl)cc54)C3C2=O)cc1Cl (single isomer, unassigned) [Example 162]
Nauc @ 3 μM: + (NAUC “+” refers to an observed NAUC <140% of positive control) | Nauc @ 10 μM: ++ (NAUC “++” refers to an observed NAUC 170-140% of positive control)

O=C1C2C3CC(F)(F)CN3C3(C(=O)Nc4c(Cl)cc(Cl)cc43)C2C(=O)N1c1cc(Cl)cc(Cl)c1 (single isomer, unassigned) [Example 179]
Nauc @ 3 μM: +++ (NAUC “+++” refers to an observed NAUC >170% of positive control) | Nauc @ 10 μM: +++ (NAUC “+++” refers to an observed NAUC >170% of positive control)

O=C1C2C3CC(F)(F)CN3C3(C(=O)Nc4c(Cl)cc(Cl)cc43)C2C(=O)N1c1cc(Cl)cc(Cl)c1 (single isomer, unassigned) [Example 180]
Nauc @ 3 μM: ++ (NAUC “++” refers to an observed NAUC 170-140% of positive control) | Nauc @ 10 μM: + (NAUC “+” refers to an observed NAUC <140% of positive control)

O=C1C2C3CC4(CC4)CN3C3(C(=O)Nc4c(Cl)cc(Cl)cc43)C2C(=O)N1c1cc(Cl)cc(Cl)c1 (single isomer, unassigned) [Example 191]
Nauc @ 3 μM: +++ (NAUC “+++” refers to an observed NAUC >170% of positive control) | Nauc @ 10 μM: +++ (NAUC “+++” refers to an observed NAUC >170% of positive control)

O=C1C2C3CC4(CC4)CN3C3(C(=O)Nc4c(Cl)cc(Cl)cc43)C2C(=O)N1c1cc(Cl)cc(Cl)c1 (single isomer, unassigned) [Example 192]
Nauc @ 3 μM: + (NAUC “+” refers to an observed NAUC <140% of positive control) | Nauc @ 10 μM: ++ (NAUC “++” refers to an observed NAUC 170-140% of positive control)

COc1c(Cl)cc(N2C(=O)C3C4CC5(CC5)CN4C4(C(=O)Nc5c(Cl)cc(Cl)cc54)C3C2=O)cc1Cl (single isomer, unassigned) [Example 197]
Nauc @ 3 μM: +++ (NAUC “+++” refers to an observed NAUC >170% of positive control) | Nauc @ 10 μM: +++ (NAUC “+++” refers to an observed NAUC >170% of positive control)

O=C1C2C3CC4(CC4)CN3C3(C(=O)Nc4c(Cl)cc(Cl)cc43)C2C(=O)N1c1cc(Cl)cc(Cl)n1 (single isomer, unassigned) [Example 218]
Nauc @ 3 μM: +++ (NAUC “+++” refers to an observed NAUC >170% of positive control) | Nauc @ 10 μM: +++ (NAUC “+++” refers to an observed NAUC >170% of positive control)

O=C1C2C3CC4(CC4)CN3C3(C(=O)Nc4c(Cl)cc(Cl)cc43)C2C(=O)N1c1cc(Cl)cc(Cl)n1 (single isomer, unassigned) [Example 219]
Nauc @ 3 μM: ++ (NAUC “++” refers to an observed NAUC 170-140% of positive control) | Nauc @ 10 μM: + (NAUC “+” refers to an observed NAUC <140% of positive control)

O=C1C2C3CC(F)(F)CN3C3(C(=O)Nc4c(Cl)cc(Cl)cc43)C2C(=O)N1c1cc(Cl)cc(Cl)n1 (single isomer, unassigned) [Example 220]
Nauc @ 3 μM: +++ (NAUC “+++” refers to an observed NAUC >170% of positive control) | Nauc @ 10 μM: +++ (NAUC “+++” refers to an observed NAUC >170% of positive control)

COc1c(Cl)cc(N2C(=O)C3C4CC(F)(F)CN4C4(C(=O)Nc5c(Cl)cc(Cl)cc54)C3C2=O)cc1Cl (single isomer, unassigned) [Example 221]
Nauc @ 3 μM: +++ (NAUC “+++” refers to an observed NAUC >170% of positive control) | Nauc @ 10 μM: +++ (NAUC “+++” refers to an observed NAUC >170% of positive control)

C[C@@]1(F)CC2C3C(=O)N(c4cc(Cl)cc(Cl)n4)C(=O)C3C3(C(=O)Nc4c(Cl)cc(Cl)cc43)N2C1 (single isomer, unassigned) [Example 230]
Nauc @ 3 μM: +++ (NAUC “+++” refers to an observed NAUC >170% of positive control) | Nauc @ 10 μM: +++ (NAUC “+++” refers to an observed NAUC >170% of positive control)

C[C@]1(OCc2ccccc2)CC2C3C(=O)N(c4cc(Cl)cc(Cl)c4)C(=O)C3C3(C(=O)Nc4c(Cl)cc(Cl)cc43)N2C1 (single isomer, unassigned) [Example 239]
Nauc @ 3 μM: ++ (NAUC “++” refers to an observed NAUC 170-140% of positive control) | Nauc @ 10 μM: ++ (NAUC “++” refers to an observed NAUC 170-140% of positive control)

Reference: patent US10072017B2, “Compounds and methods for the treatment of cystic fibrosis” (Flatley Discovery Lab, LLC, priority 2015, dated 2018)
